Data set [1] deals with T1, Dipeptidyl peptidase 4 (Homo sapiens, UniProt P27487).
A further data set deals with Dipeptidyl peptidase 8 (Homo sapiens, UniProt Q6V1X1).
In another data set the target is Dipeptidyl peptidase 9 (Homo sapiens, UniProt Q86TI2). The data set can be described thus: Inhibition of DPP9.
The target of data set [2] is T1, Dipeptidyl peptidase 4. The source holds these as a separate data set.
Data set [3] has as its target T1, Dipeptidyl peptidase 4. This is another data set of the same source.
In a further data set the test system is Mus musculus. As to the kind of experiment: Antihyperglycemic activity in C57BL/6J mouse assessed as reduction in blood glucose AUC at 3 mg/kg, po administered 30 mins before glucose challenge. The arrangement: scale not given: the % may be the effect or the level left. It counts as functional.
The nature of data set [4]: Oral bioavailability in rat. It counts as ADME, organism-based. Conditions: in vivo.
Data set [5] is described as follows: Oral bioavailability in dog. It counts as ADME, organism-based, Canis lupus familiaris. The note with it: in vivo.
Data set [6] concerns the target Beta-secretase 1 (Homo sapiens) (UniProt P56817). As to the kind of experiment: Inhibition of beta secretase at 10 uM.
For a further data set, the target named is T2, Caspase-1 (Homo sapiens) (UniProt P29466).
T2 sequence (whole entry): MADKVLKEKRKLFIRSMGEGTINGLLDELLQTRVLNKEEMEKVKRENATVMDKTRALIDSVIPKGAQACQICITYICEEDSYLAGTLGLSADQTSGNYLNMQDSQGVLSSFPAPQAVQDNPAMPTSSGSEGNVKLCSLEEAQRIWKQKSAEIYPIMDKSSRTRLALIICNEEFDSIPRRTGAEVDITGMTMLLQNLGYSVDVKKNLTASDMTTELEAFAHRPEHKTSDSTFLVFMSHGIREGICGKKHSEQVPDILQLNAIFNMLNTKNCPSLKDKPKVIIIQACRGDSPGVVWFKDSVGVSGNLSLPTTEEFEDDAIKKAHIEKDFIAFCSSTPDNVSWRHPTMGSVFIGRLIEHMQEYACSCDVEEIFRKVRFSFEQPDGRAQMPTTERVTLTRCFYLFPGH
As to the kind of experiment: Inhibition of caspase1 at 10 uM.

Data set [7] deals with T3, Caspase-10 (Homo sapiens) (UniProt Q92851).
T3 sequence (whole entry): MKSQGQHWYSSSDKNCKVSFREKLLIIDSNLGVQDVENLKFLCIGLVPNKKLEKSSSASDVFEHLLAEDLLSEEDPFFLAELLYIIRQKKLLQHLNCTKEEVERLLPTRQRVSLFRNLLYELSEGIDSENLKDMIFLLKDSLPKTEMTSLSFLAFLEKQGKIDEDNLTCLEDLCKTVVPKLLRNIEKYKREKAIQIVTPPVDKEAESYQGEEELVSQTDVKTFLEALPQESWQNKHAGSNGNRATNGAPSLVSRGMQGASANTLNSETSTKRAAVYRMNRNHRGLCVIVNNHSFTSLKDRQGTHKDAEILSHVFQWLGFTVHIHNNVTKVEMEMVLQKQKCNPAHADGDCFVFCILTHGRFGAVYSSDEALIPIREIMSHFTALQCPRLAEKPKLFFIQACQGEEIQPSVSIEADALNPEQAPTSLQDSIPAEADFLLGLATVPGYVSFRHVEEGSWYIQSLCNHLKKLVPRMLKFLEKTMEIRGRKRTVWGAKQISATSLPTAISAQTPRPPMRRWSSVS
As to the kind of experiment: Inhibition of caspase 10 at 10 uM.

Data set [8] deals with Cathepsin B (Homo sapiens) (UniProt P07858). The data set can be described thus: Inhibition of cathepsin B at 10 uM.
The target in data set [9] is T4, Pro-cathepsin H (Homo sapiens) (UniProt P09668).
T4 sequence (whole entry): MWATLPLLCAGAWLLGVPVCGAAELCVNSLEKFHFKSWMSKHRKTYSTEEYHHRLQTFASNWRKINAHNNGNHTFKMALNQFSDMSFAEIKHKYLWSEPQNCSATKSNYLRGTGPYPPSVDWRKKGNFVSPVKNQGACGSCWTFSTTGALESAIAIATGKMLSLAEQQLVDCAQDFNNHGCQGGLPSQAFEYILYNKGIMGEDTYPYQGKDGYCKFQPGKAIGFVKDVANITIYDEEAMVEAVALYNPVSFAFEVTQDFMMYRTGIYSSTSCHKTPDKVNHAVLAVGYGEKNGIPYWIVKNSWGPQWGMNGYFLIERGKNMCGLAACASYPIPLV
The data set can be described thus: Inhibition of cathepsin H at 10 uM.

For data set [10], the target named is Coagulation factor X (Homo sapiens) (UniProt P00742). As to the kind of experiment: Inhibition of factor 10a at 10 uM.
Coagulation factor X (Homo sapiens), sequence (P00742 41-179 limits assumed): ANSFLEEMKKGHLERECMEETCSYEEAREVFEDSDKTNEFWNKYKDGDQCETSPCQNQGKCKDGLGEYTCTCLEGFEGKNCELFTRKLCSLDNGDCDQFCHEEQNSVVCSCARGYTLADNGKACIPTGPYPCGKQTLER
Coagulation factor X (Homo sapiens), sequence (P00742 235-488 limits assumed): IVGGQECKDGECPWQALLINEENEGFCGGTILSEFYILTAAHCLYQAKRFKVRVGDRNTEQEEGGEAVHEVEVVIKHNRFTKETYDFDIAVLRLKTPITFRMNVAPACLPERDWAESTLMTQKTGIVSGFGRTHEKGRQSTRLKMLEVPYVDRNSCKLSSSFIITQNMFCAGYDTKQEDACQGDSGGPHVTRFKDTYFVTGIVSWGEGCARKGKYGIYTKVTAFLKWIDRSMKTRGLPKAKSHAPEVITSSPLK
For data set [11], the target named is Prothrombin (Homo sapiens) (UniProt P00734). As to the kind of experiment: Inhibition of thrombin at 10 uM.
The nature of data set [12]: Inhibition of trypsin at 10 uM.
The target in data set [13] is Voltage-gated inwardly rectifying potassium channel KCNH2 (Homo sapiens, UniProt Q12809). The data set can be described thus: Inhibition of human ERG.
Voltage-gated inwardly rectifying potassium channel KCNH2, sequence (Q12809 whole entry): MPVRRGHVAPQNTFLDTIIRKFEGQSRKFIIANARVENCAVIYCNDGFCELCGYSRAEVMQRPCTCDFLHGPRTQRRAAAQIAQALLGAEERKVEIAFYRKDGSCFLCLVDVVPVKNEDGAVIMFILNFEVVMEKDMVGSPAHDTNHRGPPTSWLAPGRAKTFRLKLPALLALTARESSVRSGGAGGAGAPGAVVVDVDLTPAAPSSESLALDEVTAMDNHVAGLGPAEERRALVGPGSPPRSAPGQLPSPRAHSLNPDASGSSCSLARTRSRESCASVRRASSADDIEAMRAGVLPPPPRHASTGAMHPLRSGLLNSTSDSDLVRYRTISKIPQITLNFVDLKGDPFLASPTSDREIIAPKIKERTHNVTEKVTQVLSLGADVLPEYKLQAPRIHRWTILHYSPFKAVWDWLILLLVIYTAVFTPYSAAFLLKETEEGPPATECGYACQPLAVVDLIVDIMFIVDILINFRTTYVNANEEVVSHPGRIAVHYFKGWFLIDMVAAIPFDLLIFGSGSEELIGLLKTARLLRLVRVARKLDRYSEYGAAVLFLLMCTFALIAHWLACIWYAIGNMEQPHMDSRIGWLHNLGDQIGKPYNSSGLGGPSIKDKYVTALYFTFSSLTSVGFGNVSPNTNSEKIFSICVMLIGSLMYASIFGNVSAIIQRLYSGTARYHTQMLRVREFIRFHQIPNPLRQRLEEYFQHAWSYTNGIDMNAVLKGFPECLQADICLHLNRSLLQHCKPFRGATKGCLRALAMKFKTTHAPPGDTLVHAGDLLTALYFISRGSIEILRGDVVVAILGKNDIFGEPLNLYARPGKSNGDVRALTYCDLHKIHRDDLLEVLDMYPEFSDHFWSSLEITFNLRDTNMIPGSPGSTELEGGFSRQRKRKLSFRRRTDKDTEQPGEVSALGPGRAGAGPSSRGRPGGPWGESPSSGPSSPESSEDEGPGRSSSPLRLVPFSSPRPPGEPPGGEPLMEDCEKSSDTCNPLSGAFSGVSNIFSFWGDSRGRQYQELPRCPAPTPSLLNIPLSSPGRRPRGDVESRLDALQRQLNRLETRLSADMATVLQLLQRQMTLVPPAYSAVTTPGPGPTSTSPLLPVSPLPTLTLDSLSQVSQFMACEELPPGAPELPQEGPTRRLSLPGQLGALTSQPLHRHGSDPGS
A short description of data set [14]: Inhibition of L-type calcium channel. Conditions: concentration not given here.
Data set [15] is described as follows: Inhibition of sodium channel site 2. The note with it: concentration not given here.
For data set [16], the species on record is Rattus norvegicus. The data set can be described thus: animal or person. Conditions: Plasma, po, 0.5 h, read-out: INH.
The species entered for data set [17] is Rattus norvegicus. As to the kind of experiment: animal or person. The note with it: Plasma, po, 8 h, read-out: INH.

The values below come from ChEMBL document CHEMBL1158599, “(2S,4S)-1-[2-(1,1-dimethyl-3-oxo-3-pyrrolidin-1-yl-propylamino)acetyl]-4-fluoro-pyrrolidine-2-carbonitrile: a potent, selective, and orally bioavailable dipeptide-derived inhibitor of dipeptidyl peptidase IV” (Bioorg Med Chem Lett, 2010).

One may read the IC50 as the concentration that gives 50% inhibition. A word on the bioavailability: it is the share of a dose that reaches the circulation, judged against a reference dose that is usually intravenous. One may read the inhibition as the relative decrease from the control value, in per cent.

T1 sequence (P27487 whole entry): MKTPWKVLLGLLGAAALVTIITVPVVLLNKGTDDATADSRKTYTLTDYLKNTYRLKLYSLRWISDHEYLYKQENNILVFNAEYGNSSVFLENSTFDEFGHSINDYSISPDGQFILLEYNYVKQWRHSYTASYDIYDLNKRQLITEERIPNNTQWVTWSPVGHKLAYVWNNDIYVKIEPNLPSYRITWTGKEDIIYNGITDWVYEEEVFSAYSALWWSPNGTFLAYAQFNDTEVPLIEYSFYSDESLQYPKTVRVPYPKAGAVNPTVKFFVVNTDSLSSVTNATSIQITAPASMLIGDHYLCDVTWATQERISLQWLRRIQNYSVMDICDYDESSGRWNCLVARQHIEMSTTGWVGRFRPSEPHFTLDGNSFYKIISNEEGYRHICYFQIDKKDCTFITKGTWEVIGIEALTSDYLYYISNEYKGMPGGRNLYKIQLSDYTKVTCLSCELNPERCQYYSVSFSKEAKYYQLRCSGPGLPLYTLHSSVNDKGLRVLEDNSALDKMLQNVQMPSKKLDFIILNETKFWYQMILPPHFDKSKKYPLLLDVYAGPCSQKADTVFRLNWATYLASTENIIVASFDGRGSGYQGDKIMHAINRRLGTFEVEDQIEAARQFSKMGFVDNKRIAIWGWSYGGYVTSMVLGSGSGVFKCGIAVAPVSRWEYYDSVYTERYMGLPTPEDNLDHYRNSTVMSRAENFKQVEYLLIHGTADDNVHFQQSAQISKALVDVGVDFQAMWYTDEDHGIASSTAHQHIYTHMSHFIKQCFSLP
Beta-secretase 1 (Homo sapiens), sequence (P56817 whole entry): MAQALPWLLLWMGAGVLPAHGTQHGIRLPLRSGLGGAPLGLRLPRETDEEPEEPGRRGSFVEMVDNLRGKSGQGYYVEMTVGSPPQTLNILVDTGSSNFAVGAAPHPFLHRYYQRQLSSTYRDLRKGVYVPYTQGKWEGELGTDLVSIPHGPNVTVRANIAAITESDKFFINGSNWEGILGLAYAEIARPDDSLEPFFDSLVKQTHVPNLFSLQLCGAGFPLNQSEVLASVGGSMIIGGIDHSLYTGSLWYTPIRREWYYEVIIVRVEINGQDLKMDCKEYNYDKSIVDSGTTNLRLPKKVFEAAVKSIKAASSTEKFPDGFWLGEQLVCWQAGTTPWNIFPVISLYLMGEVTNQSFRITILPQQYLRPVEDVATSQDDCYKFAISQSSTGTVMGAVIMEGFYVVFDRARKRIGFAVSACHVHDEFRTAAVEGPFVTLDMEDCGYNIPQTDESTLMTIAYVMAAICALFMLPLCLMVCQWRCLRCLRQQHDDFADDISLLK
Dipeptidyl peptidase 9, sequence (Q86TI2 whole entry): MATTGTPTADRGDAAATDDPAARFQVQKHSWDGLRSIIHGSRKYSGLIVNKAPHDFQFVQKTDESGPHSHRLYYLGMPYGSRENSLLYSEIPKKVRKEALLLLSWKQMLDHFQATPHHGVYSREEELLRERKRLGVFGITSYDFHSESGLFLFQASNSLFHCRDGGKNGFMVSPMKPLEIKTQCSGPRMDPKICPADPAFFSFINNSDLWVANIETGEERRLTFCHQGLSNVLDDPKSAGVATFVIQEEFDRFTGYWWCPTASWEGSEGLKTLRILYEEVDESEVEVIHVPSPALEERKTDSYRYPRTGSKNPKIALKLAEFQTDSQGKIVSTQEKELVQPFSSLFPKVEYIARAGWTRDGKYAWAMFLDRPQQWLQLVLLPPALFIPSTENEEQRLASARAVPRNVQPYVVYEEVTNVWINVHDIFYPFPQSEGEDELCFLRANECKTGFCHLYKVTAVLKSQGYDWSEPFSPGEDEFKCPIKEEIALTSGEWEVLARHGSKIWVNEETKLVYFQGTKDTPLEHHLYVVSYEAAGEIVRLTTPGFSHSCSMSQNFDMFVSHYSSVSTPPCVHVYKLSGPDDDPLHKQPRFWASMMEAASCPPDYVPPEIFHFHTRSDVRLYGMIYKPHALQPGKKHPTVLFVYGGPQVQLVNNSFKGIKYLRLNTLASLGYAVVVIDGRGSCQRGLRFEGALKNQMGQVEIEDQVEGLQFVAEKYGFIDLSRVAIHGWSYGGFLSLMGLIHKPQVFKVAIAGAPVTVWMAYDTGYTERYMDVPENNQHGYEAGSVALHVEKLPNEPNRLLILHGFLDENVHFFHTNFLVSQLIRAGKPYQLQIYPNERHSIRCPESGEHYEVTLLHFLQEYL
Dipeptidyl peptidase 8, sequence (Q6V1X1 whole entry): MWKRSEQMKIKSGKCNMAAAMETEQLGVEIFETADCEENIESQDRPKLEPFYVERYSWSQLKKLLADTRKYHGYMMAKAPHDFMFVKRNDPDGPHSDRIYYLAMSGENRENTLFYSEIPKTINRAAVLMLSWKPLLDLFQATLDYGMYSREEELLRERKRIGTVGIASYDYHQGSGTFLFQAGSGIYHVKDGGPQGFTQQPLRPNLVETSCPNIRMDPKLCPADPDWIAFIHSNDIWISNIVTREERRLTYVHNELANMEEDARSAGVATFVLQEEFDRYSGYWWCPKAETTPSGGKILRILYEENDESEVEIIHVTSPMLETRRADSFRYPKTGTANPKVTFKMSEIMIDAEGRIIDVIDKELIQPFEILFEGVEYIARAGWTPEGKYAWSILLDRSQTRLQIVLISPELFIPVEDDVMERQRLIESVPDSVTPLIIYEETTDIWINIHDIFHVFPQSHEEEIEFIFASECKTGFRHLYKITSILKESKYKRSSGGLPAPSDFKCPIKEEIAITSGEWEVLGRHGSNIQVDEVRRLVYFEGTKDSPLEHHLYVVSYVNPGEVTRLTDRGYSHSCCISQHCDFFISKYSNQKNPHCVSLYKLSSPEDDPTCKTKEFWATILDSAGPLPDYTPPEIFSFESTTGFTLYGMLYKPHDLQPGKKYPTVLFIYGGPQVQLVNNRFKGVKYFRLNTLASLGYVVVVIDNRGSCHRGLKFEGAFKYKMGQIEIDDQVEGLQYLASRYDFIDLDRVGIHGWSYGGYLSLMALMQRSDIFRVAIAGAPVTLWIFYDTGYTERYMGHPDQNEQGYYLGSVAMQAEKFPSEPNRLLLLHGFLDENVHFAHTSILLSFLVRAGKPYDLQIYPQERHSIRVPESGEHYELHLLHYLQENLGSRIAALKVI

As to `CC(C)(CC(=O)N1CCCC1)NCC(=O)N1C[C@@H](F)C[C@H]1C#N` [DBPR-108], the IC50 was 15 nM against Dipeptidyl peptidase 4 [1]; > 100 µM against Dipeptidyl peptidase 8; > 50 µM at Dipeptidyl peptidase 9; 5 nM against Dipeptidyl peptidase 4 [2]; 10 nM on Dipeptidyl peptidase 4 [3]. In addition, the Activity in the data set with Mus musculus amounted to 67%. Further, the bioavailability in [4] was 19%; in data set [5] it was 68%. The inhibition in data set [6] was 3%; on Caspase-1 (Homo sapiens), 23%; in [7], 8%; in data set [8] it was -10%; in [9], 0%; in [10], 2%. The inhibition in [11] was -7%; in [12], 0%; in data set [14], -9%; in [15], 1%. Moreover, in [13], the “inhibition (INH)” value is -6%. Besides, the inhibition in vivo at 3 mg/kg in the data set listed under Rattus norvegicus [16] was found to be 82%; in the data set listed under Rattus norvegicus [17], 70%.
